Our source for the IC50 values is PubChem BioAssay AID651733 (The Scripps Research Institute Molecular Screening Center, 2012).

Several values for one entry are separate records, joined by “and”; a condition that tells them apart may be missing. Equal values may be shown once. Activity calls are given as the source filed them. How the calls were made is not given here.

Sequence of Perilipin-5 (Homo sapiens) + 1-acylglycerol-3-phosphate O-acyltransferase ABHD5 (Homo sapiens) (Q00G26 whole entry, looked up, the tested form may be a part): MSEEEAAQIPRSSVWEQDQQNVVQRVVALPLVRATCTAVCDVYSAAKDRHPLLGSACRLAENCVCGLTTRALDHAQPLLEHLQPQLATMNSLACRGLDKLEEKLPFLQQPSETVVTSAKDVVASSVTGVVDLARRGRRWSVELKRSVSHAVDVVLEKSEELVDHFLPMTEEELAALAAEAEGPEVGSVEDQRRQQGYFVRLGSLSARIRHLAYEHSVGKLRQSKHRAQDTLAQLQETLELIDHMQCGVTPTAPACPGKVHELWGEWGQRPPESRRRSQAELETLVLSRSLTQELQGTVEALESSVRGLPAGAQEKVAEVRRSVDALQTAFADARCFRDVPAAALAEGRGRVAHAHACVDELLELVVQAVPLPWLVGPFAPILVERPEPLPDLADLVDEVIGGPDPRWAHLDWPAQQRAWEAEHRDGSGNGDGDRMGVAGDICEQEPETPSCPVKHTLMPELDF
Sequence of Perilipin-5 (Homo sapiens) + 1-acylglycerol-3-phosphate O-acyltransferase ABHD5 (Homo sapiens) (Q8WTS1 whole entry, looked up, the tested form may be a part): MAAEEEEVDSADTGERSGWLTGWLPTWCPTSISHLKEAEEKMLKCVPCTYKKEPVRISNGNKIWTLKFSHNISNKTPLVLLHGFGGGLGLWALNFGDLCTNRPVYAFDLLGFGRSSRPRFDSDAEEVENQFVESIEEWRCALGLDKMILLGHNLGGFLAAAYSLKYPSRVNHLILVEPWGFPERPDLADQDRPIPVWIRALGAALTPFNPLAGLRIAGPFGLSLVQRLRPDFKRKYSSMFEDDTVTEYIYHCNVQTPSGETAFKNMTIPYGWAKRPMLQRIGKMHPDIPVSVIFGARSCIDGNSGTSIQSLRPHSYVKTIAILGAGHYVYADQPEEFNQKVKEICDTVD

The assay concerns the target Perilipin-5 (Homo sapiens) + 1-acylglycerol-3-phosphate O-acyltransferase ABHD5 (Homo sapiens) (UniProt Q00G26+Q8WTS1). The experiment in a line: blockers of ABHD5 binding to perilipin-5 – cell lysate, luminescence, proteins expressed in HEK293T, dose response (AID 651733).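 Further: split Gaussia princeps luciferase complementation between ABHD5 and MLDP fusion proteins.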 The conditions noted are these: ABHD5-PLIN5 interaction.
Take `CC(=O)Oc1c(Cl)cc(N(C(C)=O)S(=O)(=O)c2ccccc2)c2ccccc12`: the 50% inhibitory concentration (IC50) is 7.06 µM.
In the case of `CC1=CC(C)(C)Nc2ccc(OC(=O)CN3C(=O)c4cccc5cccc(c45)C3=O)cc21` it was “inactive”; in that of `Cc1cc(C)c2nc(NNC(=O)c3ccc(S(=O)(=O)N4CCCC(C)C4)cc3)sc2c1` (centres undefined), 1.88 µM.
In the case of `Cc1ccc(C(=O)c2c(C)oc3c2C(=O)C(=O)c2ccccc2-3)cc1` it was 5.87 µM; in that of `Cc1ccc(C)c(/C=C/C(=O)c2ccccc(=O)c2O)c1`, 5.69 µM.
As for `Cc1nnc(NC(=O)c2nc(S(=O)(=O)Cc3ccccc3C)ncc2Cl)s1`, the IC50 was 5.92 µM.
Then `O=C1C(=O)c2c(C(=O)c3ccccc3)coc2-c2ccccc21`, with 5.97 µM; and `O=C(/C=C/c1ccccc1)CC(O)(c1ccccc1)C(F)(F)C(F)F` (centres undefined), with 1.1 µM; and `COc1cc(C(C)=O)ccc1OCc1cn(CC(=O)c2ccc(O)cc2)nn1`, with 5.81 µM.
Then `Cc1cccc(NC(=O)CSc2nnc(-c3ccco3)c(-c3ccco3)n2)c1`, with 4.25 µM; and `CCC(C)NC(=O)Nc1ccc2c(c1)N(C)C(=O)c1ccccc1S2` (centres undefined), with 3.6 µM; and `c1ccc(CCC2=NCCn3cccc32)cc1`, with 8.18 µM.
In the case of `COc1ccc(NC(=S)N(CCCN2CCCC2)Cc2cccn2Cc2ccc(Cl)cc2)cc1Cl` it was “inactive”; in that of `Cc1cccc(C)c1NC(=O)C(c1ccccc1)n1c(=O)c(-c2ccco2)nc2ccccc21` (centres undefined), 7.69 µM; in that of `O=C(NC1CCCCC1)C(c1ccccc1F)n1c(=O)c(-c2ccco2)nc2ccccc21` (centres undefined), 4.15 µM.
Regarding `COc1ccc(C(C(=O)NCc2ccccc2)n2c(=O)c(-c3ccco3)nc3ccccc32)cc1` (centres undefined), the IC50 is 5.37 µM.
Then `CCc1nnc(NC(=O)c2nc(S(=O)(=O)Cc3cccc(C)c3)ncc2Cl)s1`, with 4.49 µM; and `O=C(NC1CCCCC1)C(c1ccc(C(F)(F)F)cc1)n1c(=O)c(-c2ccco2)nc2ccccc21` (centres undefined), with 3.81 µM.
In the case of `CCC(c1nc2ccccc2[nH]1)n1c(=O)c(-c2ccco2)nc2ccccc21` (centres undefined) it was 5.45 µM; in that of `Cc1oc2c(c1C(=O)c1ccc(Cl)cc1)C(=O)C(=O)c1ccccc1-2`, 4.38 µM.
Then `CSc1nnc(NC(=O)c2nc(S(=O)(=O)Cc3ccccc3)ncc2Cl)s1`, with 4.13 µM; and `Cc1cccc(C)c1OCc1cn(CC(=O)c2ccc(O)cc2)nn1`, with 5.07 µM; and `COc1ccc(NC(=O)C(c2ccccc2)n2c(=O)c(-c3ccco3)nc3ccccc32)cc1` (centres undefined), with “inactive”.
Consider `N#Cc1ccc(C(C(=O)Nc2ccc3c(c2)OCCO3)n2c(=O)c(-c3ccco3)nc3ccccc32)cc1` (centres undefined), for which the IC50 result was “inactive”.
Then `CC(=O)Nc1ccc(OCc2cn(CC(=O)c3ccc(O)cc3)nn2)cc1`, with 3.76 µM; and `C#CCN(C[C@@H]1[C@@H](OC(=O)NCCCCCC)[C@@H](OC(=O)NCCCCCC)Cn2c(=O)ccc(=O)n21)S(=O)(=O)c1ccc(C)cc1`, with 6.47 µM.
Then `CCN1C/C(=C/c2ccc(OC)c(O)c2)C(=O)/C(=C/c2ccc(OC)c(O)c2)C1`, with 7.28 µM; and `CS(=O)(=O)c1ccc(C(=O)NCCN2C(=O)S/C(=C\c3cccnc3)C2=O)cc1[N+](=O)[O-]`, with 4.62 µM; and `COc1cccc2sc(N(CCCN(C)C)C(=O)COc3ccc(Cl)cc3)nc12`, with “inactive”.
Then `Cc1ccc2sc(N(CCCN(C)C)C(=O)CN3C(=O)c4ccccc4C3=O)nc2c1C`, with “inactive”; and `Oc1ccc2sc(-c3ccccc3O)c(-c3ccc(OCCN4CCCCC4)cc3)c2c1`, with “inactive”; and `CC(=O)Oc1ccc(C23c4ccccc4C2(OC(C)=O)c2cc(OC(C)=O)ccc23)cc1` (centres undefined), with 1.33 µM.
Take `CC(CCc1ccco1)NC(=O)CCc1nnc2ccc(NCc3ccccc3Cl)nn12` (centres undefined): the half-maximal inhibitory concentration (IC50) was 3.73 µM.
With `COCCN(CCOC)c1nc(N)c2c(N)nc3c(c2c1C#N)CC(=O)N3Cc1ccc(Cl)cc1`, the IC50 entry is “inactive”.
In the case of `COc1ccc(C(C(=O)NC(C)(C)C)n2c(=O)c(-c3ccco3)nc3ccccc32)cc1` (centres undefined) it was 3.52 µM; in that of `C#CCOCCOCCOCCNc1nc(N2CCN(C(=O)CCCCCCCCCCNC(=O)[C@@H](CCSC)n3cc(CCO)nn3)CC2)nc(N2CCN(C(=O)CCCCCCCCCCNC(=O)[C@@H]([C@H](C)O)n3cc(C)nn3)CC2)n1`, “inactive”; in that of `Cc1cc(C)c(C(CC(=O)c2cccs2)C(C#N)C#N)c(C)c1` (centres undefined), 8.57 µM.
In the case of `CN(C)CCOC1(Cc2ccc(F)cc2)CCC(C(C)(C)C)CC1` (centres undefined) it was 6.65 µM.
Then `CC(=O)Nc1ccc(S(=O)(=O)N2c3ccc(F)cc3CCC2C)cc1` (centres undefined), with “inactive”; and `Cc1ccc(S(=O)(=O)N2C[C@@]3(O)Cn4c(=O)ccc(=O)n4C[C@@]3(OC(=O)NCC3CCCCC3)C2)cc1`, with “inactive”; and `CC(=O)Cc1cc(O)c2ccccc2c1OC(=O)c1ccc(Br)cc1`, with 4.1 µM.
With `CC(C)(C)NC(=O)C(c1ccnc2ccccc12)n1c(=O)c(-c2ccco2)nc2ccccc21` (centres undefined), the IC50 was 8.16 µM.
As for `C#CCN(C[C@@H]1[C@@H](OC(=O)Nc2cccs2)[C@@H](OC(=O)Nc2cccs2)Cn2c(=O)ccc(=O)n21)S(=O)(=O)c1ccc(C)cc1`, the IC50 was 3.06 µM.
In the case of `CCCCCCC=C1CCC(CN2CCCC2)C1=O` (centres undefined) it was 2.15 µM; in that of `CSC(=Nc1ccccc1)N=C(SCc1ccccc1)N(C)C`, 1.19 µM.
Then `CC1CCN(S(=O)(=O)c2ccc(NC(=O)Cc3cccs3)cc2)CC1`, with 8.04 µM; and `COC/C=C/C1=CC2=CC(=O)C(C)(OC(=O)C3CCCC3)C(=O)C2=CO1` (centres undefined), with 3.88 µM.
In the case of `CCOC(=O)C1C(OC(=O)c2ccccc2)CC2CCC1N2C` (centres undefined) it was 5.69 µM; in that of `CCN(CC)CCNC(=O)c1ccc(NC(=O)c2cn(-c3ccccc3)nc2-c2cccs2)cc1`, “inactive”; in that of `O=C(NCc1ccccc1)C(C1CC1)n1c(=O)c(-c2ccco2)nc2ccccc21` (centres undefined), “inactive”.
Consider `Cc1cccc(C)c1NC(=O)C(c1ccc(C#N)cc1)n1c(=O)c(-c2ccco2)nc2ccccc21` (centres undefined), for which the IC50 was 3.4 µM.
In the case of `CCOC(=O)C1CCCN(C(=O)c2cc(Nc3ccc(OC)cc3)nc3ccccc23)C1` (centres undefined) it was “inactive”.
For the compound `CN(C)CCCNC(=O)c1ccc(-c2nc(-c3ccc(Cl)cc3)cs2)cc1`, the IC50 entry was “inactive”.
In the case of `C=CC(=O)N1c2ccccc2Sc2ccc(NC(=O)OCC)cc21` it was 4.84 µM.
Consider `CN(C)CCOc1ccc(-c2c(-c3ccccc3)sc3ccccc23)cc1`, for which the IC50 entry was “inactive”.
Then `O=C(NC1CCCCC1)C(c1ccc(-c2ccccc2)cc1)n1c(=O)c(-c2ccco2)nc2ccccc21` (centres undefined), with 4.1 µM.
`Cc1ccc(C(=O)/C=C/c2cc(Br)cc(Br)c2O)o1`: the IC50 entry is “inactive”.
In the case of `NC(=NCCCCCCN=C(N)/N=C(\N)Nc1ccc(Cl)cc1)/N=C(\N)Nc1ccc(Cl)cc1`, the IC50 is 6 µM and 4.02 µM.
Then `CCC(C(=O)OCCN(CC)CC)c1ccccc1` (centres undefined), with 2.67 µM; and `CCN(CC)CCC(C)OC(c1ccccc1)c1ccccc1` (centres undefined), with 3.29 µM.
In the case of `CC(C)(C)NC(=O)C(c1ccc(C(F)(F)F)cc1)n1c(=O)c(-c2ccco2)nc2ccccc21` (centres undefined) it was 6.67 µM; in that of `C=C1C(=O)O[C@H]2C[C@H]1[C@@H](OC(C)=O)C/C(C)=C/CC/C(C)=C\CC[C@]2(C)O`, 1.6 µM; in that of `CCCC(=O)NC(c1cccc([N+](=O)[O-])c1)c1ccc2cccnc2c1O` (centres undefined), “inactive”.
In the case of `CC(c1nc2ccccc2[nH]1)n1c(=O)c(-c2ccco2)nc2ccccc21` (centres undefined) it was 6.21 µM; in that of `CC(C)(C)NC(=O)C(c1ccc(-c2ccccc2)cc1)n1c(=O)c(-c2ccco2)nc2ccccc21` (centres undefined), 2.56 µM.
Regarding `Cc1nc2c(o1)CCc1ccccc1C2N1CCN(C)CC1` (centres undefined), the half-inhibitory concentration (IC50) was 4.44 µM.
As to `CC1=CC(C)(C)Nc2ccc(OC(=O)CN3C(=O)CCC3=O)cc21`, the IC50 was 3.21 µM.
With `CC(C)(C)NC(=O)C(c1ccccc1)n1c(=O)c(-c2ccco2)nc2ccccc21` (centres undefined), the 50% inhibitory concentration (IC50) is 3.62 µM.
In the case of `O=C(NCc1ccccc1)C(c1ccccc1)n1c(=O)c(-c2ccco2)nc2ccccc21` (centres undefined) it was 4.77 µM.
In the case of `COCCNC(=O)/C(C#N)=C/c1cccc(/C=C(\C#N)C(=O)NCCOC)c1` it was 1.09 µM; in that of `CCSc1nnc(NC(=O)c2nc(S(=O)(=O)Cc3ccc(F)cc3)ncc2Cl)s1`, 3.78 µM.
For `CC1Sc2ccc(S(=O)(=O)N3CCC(C(=O)NCc4ccc(Cl)cc4)CC3)cc2NC1=O` (centres undefined), the IC50 entry is “inactive”.
In the case of `COC(=O)c1cc(=O)n(Cc2ccco2)c(=Nc2ccc(F)cc2)s1` it was 3.58 µM; in that of `O=C(O)CC(O)(CC(=O)O)C(=O)O`, 3.54 µM; in that of `CCCCn1c(SCC(=O)NCc2ccco2)nnc1-c1ccoc1C`, 6.5 µM.
In the case of `O=C(Cn1c(=O)n(Cc2ccco2)c(=O)c2c3c(sc21)CCCC3)Nc1ccccc1` it was “inactive”; in that of `CCN(CCCc1ccccc1)CCCc1ccccc1`, 2.62 µM; in that of `O=c1c(-c2ccco2)nc2ccccc2n1C(CCc1ccccc1)c1nc2ccccc2[nH]1` (centres undefined), 5.14 µM.
In the case of `N#Cc1ccccc1OCc1cn(CC(=O)c2ccc(O)cc2)nn1` it was 5.91 µM.

In general, IC50 refers to the midpoint of a concentration-inhibition curve.
